The results in this text go back to patent US20200239530A1, “COMPOUNDS AND METHODS OF MODULATING PROTEIN DEGRADATION” (Vividion Therapeutics, Inc., priority 2017, published 2020).

What all share (assay): Cysteine liganding, probe competition
Holding throughout (assay type): binding

The target in assay [1] is T1, SQSTM1 Sequestosome-1 (Homo sapiens, UniProt Q13501).
T1 construct: Cells were resuspended in cold PBS on ice and sonicated with a probe sonicator to achieve lysis; endogenous in cells
The gist of the method:
(§1)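 Probe competition in native proteome: 5 mg/ml lysate, compound 1 hr 25° C, then desthiobiotin iodoacetamide (10 mM stock) 1 hr 25° C; acetone ppt, urea/DTT reduction, iodoacetamide alkylation, trypsin, streptavidin pull-down.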

The target in assay [2] is T2, SETD1A Histone-lysine N-methyltransferase SETD1A (Homo sapiens, UniProt O15047).
T2 construct: Cells were resuspended in cold PBS on ice and sonicated with a probe sonicator to achieve lysis; endogenous in cells
The gist of the method: as §1

The target of assay [3] is T3, PML Protein PML (Homo sapiens, UniProt P29590).
T3 construct: Cells were resuspended in cold PBS on ice and sonicated with a probe sonicator to achieve lysis; endogenous in cells
T3 sequence (P29590 1-882): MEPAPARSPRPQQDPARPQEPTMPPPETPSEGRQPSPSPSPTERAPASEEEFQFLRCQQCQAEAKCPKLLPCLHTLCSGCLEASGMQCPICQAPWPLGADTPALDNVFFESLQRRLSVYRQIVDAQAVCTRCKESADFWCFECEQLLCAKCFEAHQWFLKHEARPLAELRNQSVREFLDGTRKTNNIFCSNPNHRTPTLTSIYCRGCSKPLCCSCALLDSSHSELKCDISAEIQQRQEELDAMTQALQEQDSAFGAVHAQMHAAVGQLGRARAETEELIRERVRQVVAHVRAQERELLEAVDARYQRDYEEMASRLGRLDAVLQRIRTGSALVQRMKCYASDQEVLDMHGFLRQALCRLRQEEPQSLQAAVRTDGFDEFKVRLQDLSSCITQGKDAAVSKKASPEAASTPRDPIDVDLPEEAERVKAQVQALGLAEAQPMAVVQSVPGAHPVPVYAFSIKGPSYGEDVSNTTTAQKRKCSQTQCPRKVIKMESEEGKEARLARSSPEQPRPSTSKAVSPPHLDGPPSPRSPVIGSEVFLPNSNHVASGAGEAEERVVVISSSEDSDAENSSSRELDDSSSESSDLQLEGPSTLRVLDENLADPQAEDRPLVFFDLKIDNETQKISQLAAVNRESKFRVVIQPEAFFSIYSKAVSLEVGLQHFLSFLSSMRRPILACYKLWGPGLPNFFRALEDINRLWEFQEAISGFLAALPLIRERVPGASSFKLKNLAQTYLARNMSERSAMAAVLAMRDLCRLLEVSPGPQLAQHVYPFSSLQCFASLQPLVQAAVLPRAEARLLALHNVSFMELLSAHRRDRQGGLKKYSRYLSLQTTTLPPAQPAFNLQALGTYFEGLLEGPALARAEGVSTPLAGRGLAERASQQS
The gist of the method:
as §1

Assay [4] deals with T4, NOC2L Nucleolar complex protein 2 homolog (Homo sapiens, UniProt Q9Y3T9).
T4 construct: Cells were resuspended in cold PBS on ice and sonicated with a probe sonicator to achieve lysis; endogenous in cells
An outline of the steps:
as §1

The target in assay [5] is T5, MT-ND5 NADH-ubiquinone oxidoreductase chain 5 (Homo sapiens, UniProt P03915).
T5 construct: Cells were resuspended in cold PBS on ice and sonicated with a probe sonicator to achieve lysis; endogenous in cells
As to conditions: for Liganded: MT-ND5 Res# 518, uniprot P03915. An outline of the steps:
as §1

Assay [6] concerns the target T6, RNF40 E3 ubiquitin-protein ligase BRE1B (Homo sapiens, UniProt O75150).
T6 construct: Cells were resuspended in cold PBS on ice and sonicated with a probe sonicator to achieve lysis; endogenous in cells
The gist of the method:
as §1

T1 sequence (Q13501 whole entry): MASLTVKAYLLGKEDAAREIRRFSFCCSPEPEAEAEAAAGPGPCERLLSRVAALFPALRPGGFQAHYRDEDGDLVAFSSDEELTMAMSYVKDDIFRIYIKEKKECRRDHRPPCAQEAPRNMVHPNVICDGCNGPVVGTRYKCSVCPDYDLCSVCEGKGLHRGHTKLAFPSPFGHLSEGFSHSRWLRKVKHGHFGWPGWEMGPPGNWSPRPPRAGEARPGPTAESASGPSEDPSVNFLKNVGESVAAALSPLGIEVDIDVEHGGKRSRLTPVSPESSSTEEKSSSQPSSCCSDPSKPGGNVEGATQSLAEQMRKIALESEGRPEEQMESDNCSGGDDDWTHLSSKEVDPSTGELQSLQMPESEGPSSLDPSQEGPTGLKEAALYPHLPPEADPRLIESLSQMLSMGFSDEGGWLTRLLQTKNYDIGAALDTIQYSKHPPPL
T6 sequence (O75150 whole entry): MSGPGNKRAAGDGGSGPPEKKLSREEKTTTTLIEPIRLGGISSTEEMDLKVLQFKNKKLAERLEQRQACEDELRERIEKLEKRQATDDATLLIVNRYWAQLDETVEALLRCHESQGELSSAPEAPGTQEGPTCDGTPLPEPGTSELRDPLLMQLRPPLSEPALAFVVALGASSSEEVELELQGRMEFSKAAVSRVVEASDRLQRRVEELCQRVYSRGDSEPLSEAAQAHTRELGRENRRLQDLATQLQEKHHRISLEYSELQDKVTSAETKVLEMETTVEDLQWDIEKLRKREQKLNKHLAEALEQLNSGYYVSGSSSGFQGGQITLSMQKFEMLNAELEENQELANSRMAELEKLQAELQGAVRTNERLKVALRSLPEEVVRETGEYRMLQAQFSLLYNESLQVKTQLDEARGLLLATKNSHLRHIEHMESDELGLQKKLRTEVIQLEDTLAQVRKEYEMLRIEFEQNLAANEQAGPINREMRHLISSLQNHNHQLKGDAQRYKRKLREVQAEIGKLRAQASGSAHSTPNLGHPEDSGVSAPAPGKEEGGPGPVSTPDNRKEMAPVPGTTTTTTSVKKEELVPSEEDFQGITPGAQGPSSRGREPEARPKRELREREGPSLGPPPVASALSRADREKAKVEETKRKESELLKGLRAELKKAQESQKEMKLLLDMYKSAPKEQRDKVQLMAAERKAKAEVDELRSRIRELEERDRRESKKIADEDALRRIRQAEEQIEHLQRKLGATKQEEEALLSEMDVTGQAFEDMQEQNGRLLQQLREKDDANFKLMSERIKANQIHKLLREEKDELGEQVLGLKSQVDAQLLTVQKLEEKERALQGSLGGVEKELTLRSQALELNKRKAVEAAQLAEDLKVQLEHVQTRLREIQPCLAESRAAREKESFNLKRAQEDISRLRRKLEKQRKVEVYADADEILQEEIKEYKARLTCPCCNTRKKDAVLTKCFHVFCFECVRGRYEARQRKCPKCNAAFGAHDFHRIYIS
T5 sequence (P03915 whole entry): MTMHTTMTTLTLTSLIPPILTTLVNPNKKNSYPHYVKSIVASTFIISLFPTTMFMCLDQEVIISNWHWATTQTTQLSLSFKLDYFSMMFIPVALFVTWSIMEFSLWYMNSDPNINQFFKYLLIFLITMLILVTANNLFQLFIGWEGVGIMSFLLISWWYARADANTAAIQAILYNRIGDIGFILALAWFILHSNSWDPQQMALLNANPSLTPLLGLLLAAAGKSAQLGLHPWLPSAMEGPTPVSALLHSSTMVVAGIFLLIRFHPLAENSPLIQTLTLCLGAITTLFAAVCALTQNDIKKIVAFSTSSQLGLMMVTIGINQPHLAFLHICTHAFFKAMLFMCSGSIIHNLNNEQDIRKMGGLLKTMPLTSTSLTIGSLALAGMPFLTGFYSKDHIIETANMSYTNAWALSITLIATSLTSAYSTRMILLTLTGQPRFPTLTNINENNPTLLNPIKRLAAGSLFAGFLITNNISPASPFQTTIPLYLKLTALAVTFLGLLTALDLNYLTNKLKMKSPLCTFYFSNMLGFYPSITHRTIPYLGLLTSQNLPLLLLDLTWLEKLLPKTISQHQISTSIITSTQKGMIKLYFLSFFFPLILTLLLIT
T2 sequence (O15047 whole entry): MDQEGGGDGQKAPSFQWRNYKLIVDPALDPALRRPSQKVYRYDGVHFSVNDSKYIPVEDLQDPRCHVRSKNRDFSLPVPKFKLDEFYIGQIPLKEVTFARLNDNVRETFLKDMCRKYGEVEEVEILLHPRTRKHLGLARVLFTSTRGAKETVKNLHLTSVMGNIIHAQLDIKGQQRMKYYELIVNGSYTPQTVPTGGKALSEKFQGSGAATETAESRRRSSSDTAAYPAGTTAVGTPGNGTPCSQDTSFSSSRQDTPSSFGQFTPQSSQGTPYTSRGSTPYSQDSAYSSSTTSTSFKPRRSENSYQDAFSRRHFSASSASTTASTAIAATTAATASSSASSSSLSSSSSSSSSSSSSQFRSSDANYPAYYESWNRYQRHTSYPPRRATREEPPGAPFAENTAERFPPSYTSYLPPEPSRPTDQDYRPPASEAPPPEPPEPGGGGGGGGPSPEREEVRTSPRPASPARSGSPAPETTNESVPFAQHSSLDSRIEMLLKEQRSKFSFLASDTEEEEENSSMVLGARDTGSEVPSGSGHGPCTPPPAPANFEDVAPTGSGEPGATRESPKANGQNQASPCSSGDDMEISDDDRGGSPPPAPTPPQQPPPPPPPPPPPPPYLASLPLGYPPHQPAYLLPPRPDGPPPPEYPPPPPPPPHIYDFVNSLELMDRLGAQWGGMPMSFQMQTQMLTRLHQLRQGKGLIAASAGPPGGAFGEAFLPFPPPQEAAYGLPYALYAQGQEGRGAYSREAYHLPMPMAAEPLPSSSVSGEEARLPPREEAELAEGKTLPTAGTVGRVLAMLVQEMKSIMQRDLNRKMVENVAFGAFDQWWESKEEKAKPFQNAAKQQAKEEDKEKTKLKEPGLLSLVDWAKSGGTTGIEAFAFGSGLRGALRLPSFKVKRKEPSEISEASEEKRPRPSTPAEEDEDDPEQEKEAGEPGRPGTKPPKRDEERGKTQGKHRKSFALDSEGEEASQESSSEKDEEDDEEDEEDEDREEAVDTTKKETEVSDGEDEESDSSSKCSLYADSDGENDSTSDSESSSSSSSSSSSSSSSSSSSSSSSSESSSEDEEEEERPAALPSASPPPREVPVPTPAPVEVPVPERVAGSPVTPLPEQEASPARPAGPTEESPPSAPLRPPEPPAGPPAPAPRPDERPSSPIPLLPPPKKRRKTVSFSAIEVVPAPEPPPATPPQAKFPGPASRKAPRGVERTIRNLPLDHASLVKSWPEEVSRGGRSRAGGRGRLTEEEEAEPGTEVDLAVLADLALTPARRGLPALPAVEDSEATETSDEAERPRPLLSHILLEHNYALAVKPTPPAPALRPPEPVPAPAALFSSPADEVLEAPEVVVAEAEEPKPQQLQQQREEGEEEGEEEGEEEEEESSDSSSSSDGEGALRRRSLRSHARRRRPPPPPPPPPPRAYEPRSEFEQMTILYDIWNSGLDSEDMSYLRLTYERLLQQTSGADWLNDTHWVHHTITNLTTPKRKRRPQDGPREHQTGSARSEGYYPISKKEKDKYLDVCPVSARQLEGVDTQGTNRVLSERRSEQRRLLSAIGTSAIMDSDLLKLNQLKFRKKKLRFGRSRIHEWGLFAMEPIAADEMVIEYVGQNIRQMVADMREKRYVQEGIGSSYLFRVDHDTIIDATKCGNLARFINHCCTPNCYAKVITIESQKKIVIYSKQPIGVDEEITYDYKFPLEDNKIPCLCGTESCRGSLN

`COc1ccc2c(c1)CCCN2C(=O)CCl` [KB02]: the Liganded result in assay [1] (SQSTM1 Res# 131, uniprot Q13501) is “YES”; in assay [2] (SETD1A Res# 1648, uniprot O15047) it was “YES”; in assay [3] (PML Res# 479, uniprot P29590) it was “YES”; in assay [3] (PML Res# 484, uniprot P29590) it was “YES”; in assay [4] (NOC2L Res# 585, uniprot Q9Y3T9), “YES”; in assay [5], “YES”. In addition, in assay [6] (RNF40 Res# 890, uniprot O75150), the Liganded result was “YES”. For the same molecule, the percent_inhibition in assay [6] (500 uM, UniProt O75150) was 24%.

Consider `O=C(CCl)Nc1cc(C(F)(F)F)cc(C(F)(F)F)c1` [KBO3], for which the “100 Max” value is given as 11.89 in assay [1] (uniprot Q13501); 15.12 in assay [2] (uniprot O15047); 29.97 in assay [4] (uniprot Q9Y3T9); 83.61 in assay [5] (uniprot P03915, in % (unit assumed)); −5.2 in assay [6] (uniprot O75150, in % (unit assumed)). Also, the 100 ave is −14.15 in assay [1] (uniprot Q13501); −0.4575 in assay [2] (uniprot O15047); 7.195 in assay [4] (uniprot Q9Y3T9); 83.61 in assay [5] (uniprot P03915); −9.9 in assay [6] (uniprot O75150). For the same molecule, the “500 Max” value was found to be 56.86 in assay [1] (uniprot Q13501), 40.15 in assay [2] (uniprot O15047), 59.2 in assay [4] (uniprot Q9Y3T9) and 29.2 in assay [6] (uniprot O75150). Besides, the 500 ave is reported as 54.29 in assay [1] (uniprot Q13501), 38.365 in assay [2] (uniprot O15047), 56.82 in assay [4] (uniprot Q9Y3T9) and 24.5 in assay [6] (uniprot O75150). Further, in assay [3] (UniProt P29590, 500 uM), the “KB03_500 uM_percent_inhibition” value was 69%. In assay [5], the Liganded result is “YES”.
